According to US20240308987A1, “SMALL MOLECULE INHIBITOR AGAINST NASOPHARYNGEAL CARCINOMA, PREPARATION METHOD AND APPLICATION THEREOF” (SHENZHEN BAY LABORATORY, priority 2021, published 2024):

Test system: C666-1 cells
Assay: C666-1 Cell Viability Assay (Resazurin cytotoxicity test)
Assay type: cell-based
Settings: Homo sapiens, C6661, EB virus-positive C666-1 cells, 72 hours treatment, 100-0.78 micromole/L, read-out: Inhibitory Rate
Procedure, shortened: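 EBV-positive nasopharyngeal carcinoma C666-1 cells, 5×10^3 per well, were grown 24 h, then exposed to compound for 72 h at 37 °C (8-point two-fold dilutions, final 100–0.78 µM). Viability was read by resazurin reduction fluorescence after 3 h; EC50 came from the fitted inhibition curve.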

## O=C(Nc1ccc(OC2CN(c3cccc(C(=O)O)c3-c3cccc(Cl)c3)C2)cc1)Nc1cccc(C(F)(F)F)c1 [Example 37a, 3′-chloro-6-(3-(4-(3-(3-(trifluoromethyl)phenyl)ureido)phenoxy)azetidin-1-yl)-[1,1′-biphenyl]-2-carboxylic acid]
  EC50: > 50 µM

## COC(=O)c1cccc(N2CC(Oc3ccc(CNc4cccnc4)cc3)C2)c1-c1cccc(Cl)c1 [Example 38, methyl 3′-chloro-6-(3-(4-((pyridin-3-ylamino)methyl)phenoxy)azetidin-1-yl)-[1,1′-biphenyl]-2-carboxylate]
  EC50: 10 to 50 µM

## O=C(O)c1cccc(N2CC(Oc3ccc(CNc4cccnc4)cc3)C2)c1-c1cccc(Cl)c1 [Example 38a, 3′-chloro-6-(3-(4-((pyridin-3-ylamino)methyl)phenoxy)azetidin-1-yl)-[1,1′-biphenyl]-2-carboxylic acid]
  EC50: 10 to 50 µM

## O=C(NO)c1cccc(N2CC(Oc3ccc(CNc4cccnc4)cc3)C2)c1-c1cccc(Cl)c1 [Example 38b, 3′-chloro-N-hydroxy-6-(3-(4-((pyridin-3-ylamino)methyl)phenoxy)azetidin-1-yl)-[1,1′-biphenyl]-2-carboxamide]
  EC50: < 1 µM

## COC(=O)c1cccc(N2CC(Oc3ccc(CNc4cccnc4)cc3)C2)c1-c1ccccc1 [Example 39, methyl 6-(3-(4-((pyridin-3-ylamino)methyl)phenoxy)azetidin-1-yl)-[1,1′-biphenyl]-2-carboxylate]
  EC50: > 50 µM

## O=C(O)c1cccc(N2CC(Oc3ccc(CNc4cccnc4)cc3)C2)c1-c1ccccc1 [Example 39a, 6-(3-(4-((pyridin-3-ylamino)methyl)phenoxy)azetidin-1-yl)-[1,1′-biphenyl]-2-carboxylic acid]
  EC50: > 50 µM

## O=C(NO)c1cccc(N2CC(Oc3ccc(CNc4cccnc4)cc3)C2)c1-c1ccccc1 [Example 39b, N-hydroxy-6-(3-(4-((pyridin-3-ylamino)methyl)phenoxy)azetidin-1-yl)-[1,1′-biphenyl]-2-carboxamide]
  EC50: < 1 µM

## COC(=O)c1cccc(N2CC(Oc3ccc(CC(=O)Nc4cccnc4)cc3)C2)c1-c1ccccc1 [Example 40, methyl 6-(3-(4-(2-oxo-2-(pyridin-3-ylamino)ethyl)phenoxy)azetidin-1-yl)-[1,1′-biphenyl]-2-carboxylate]
  EC50: < 1 µM

## O=C(Cc1ccc(OC2CN(c3cccc(C(=O)O)c3-c3ccccc3)C2)cc1)Nc1cccnc1 [Example 40a, 6-(3-(4-(2-oxo-2-(pyridin-3-ylamino)ethyl)phenoxy)azetidin-1-yl)-[1,1′-biphenyl]-2-carboxylic acid]
  EC50: 1 to 10 µM

## O=C(Cc1ccc(OC2CN(c3cccc(C(=O)NO)c3-c3ccccc3)C2)cc1)Nc1cccnc1 [Example 40b, N-hydroxy-6-(3-(4-(2-oxo-2-(pyridin-3-ylamino)ethyl)phenoxy)azetidin-1-yl)-[1,1′-biphenyl]-2-carboxamide]
  EC50: < 1 µM

## CNC(=O)c1cccc(N2CC(Oc3ccc(CC(=O)Nc4cccnc4)cc3)C2)c1-c1ccccc1 [Example 40c, N-methyl-6-(3-(4-(2-oxo-2-(pyridin-3-ylamino)ethyl)phenoxy)azetidin-1-yl)-[1,1′-biphenyl]-2-carboxamide]
  EC50: 1 to 10 µM

## COC(=O)c1cccc(N2CC(Oc3ccc(NC(=O)Nc4cccnc4)cc3)C2)c1-c1cccc(Cl)c1 [Example 41, methyl 3′-chloro-6-(3-(4-(3-(pyridin-3-yl)ureido)phenoxy)azetidin-1-yl)-[1,1′-biphenyl]-2-carboxylate]
  EC50: < 1 µM

## O=C(Nc1ccc(OC2CN(c3cccc(C(=O)O)c3-c3cccc(Cl)c3)C2)cc1)Nc1cccnc1 [Example 41a, 3′-chloro-6-(3-(4-(3-(pyridin-3-yl)ureido)phenoxy)azetidin-1-yl)-[1,1′-biphenyl]-2-carboxylic acid]
  EC50: 1 to 10 µM

## O=C(Nc1ccc(OC2CN(c3cccc(C(=O)NO)c3-c3cccc(Cl)c3)C2)cc1)Nc1cccnc1 [Example 41b, 3′-chloro-N-hydroxy-6-(3-(4-(3-(pyridin-3-yl)ureido)phenoxy)azetidin-1-yl)-[1,1′-biphenyl]-2-carboxamide]
  EC50: < 1 µM

## COC(=O)c1cccc(N2CC(Oc3ccc(NC(=O)Nc4cccnc4)cc3)C2)c1-c1ccccc1 [Example 42, methyl 6-(3-(4-(3-(pyridin-3-yl)ureido)phenoxy)azetidin-1-yl)-[1,1′-biphenyl]-2-carboxylate]
  EC50: < 1 µM

## O=C(Nc1ccc(OC2CN(c3cccc(C(=O)O)c3-c3ccccc3)C2)cc1)Nc1cccnc1 [Example 42a, 6-(3-(4-(3-(pyridin-3-yl)ureido)phenoxy)azetidin-1-yl)-[1,1′-biphenyl]-2-carboxylic acid]
  EC50: 1 to 10 µM

## O=C(Nc1ccc(OC2CN(c3cccc(C(=O)NO)c3-c3ccccc3)C2)cc1)Nc1cccnc1 [Example 42b, N-hydroxy-6-(3-(4-(3-(pyridin-3-yl)ureido)phenoxy)azetidin-1-yl)-[1,1′-biphenyl]-2-carboxamide]
  EC50: < 1 µM

## CNC(=O)c1cccc(N2CC(Oc3ccc(NC(=O)Nc4cccnc4)cc3)C2)c1-c1ccccc1 [Example 42c, N-methyl-6-(3-(4-(3-(pyridin-3-yl)ureido)phenoxy)azetidin-1-yl)-[1,1′-biphenyl]-2-carboxamide]
  EC50: < 1 µM

## COC(=O)c1cccc(N2CC(Oc3ccc(CC(=O)Nc4cccnc4)cc3)C2)c1 [Example 43, methyl 3-(3-(4-(2-oxo-2-(pyridin-3-ylamino)ethyl)phenoxy)azetidin-1-yl) benzoate]
  EC50: 1 to 10 µM

## O=C(Cc1ccc(OC2CN(c3cccc(C(=O)O)c3)C2)cc1)Nc1cccnc1 [Example 43a, 3-(3-(4-(2-oxo-2-(pyridin-3-ylamino)ethyl)phenoxy)azetidin-1-yl) benzoic acid]
  EC50: 1 to 10 µM

## O=C(Cc1ccc(OC2CN(c3cccc(C(=O)NO)c3)C2)cc1)Nc1cccnc1 [Example 43b, N-hydroxy-3-(3-(4-(2-oxo-2-(pyridin-3-ylamino)ethyl)phenoxy)azetidin-1-yl) benzamide]
  EC50: < 1 µM

## O=C(Cc1ccc(OC2CN(c3ccccc3)C2)cc1)Nc1cccnc1 [Example 43c, 2-(4-((1-phenylazetidin-3-yl)oxy)phenyl)-N-(pyridin-3-yl) acetamide]
  EC50: 10 to 50 µM

## COC(=O)c1cccc(N2CC(Oc3ccc(CC(=O)Nc4cccnc4)cc3)C2)c1-c1ccc2cc[nH]c2c1 [Example 44, methyl 2-(1H-indol-6-yl)-3-(3-(4-(2-oxo-2-(pyridin-3-ylamino)ethyl)phenoxy)azetidin-1-yl) benzoate]
  EC50: < 1 µM

## O=C(Cc1ccc(OC2CN(c3cccc(C(=O)O)c3-c3ccc4cc[nH]c4c3)C2)cc1)Nc1cccnc1 [Example 44a, 2-(1H-indol-6-yl)-3-(3-(4-(2-oxo-2-(pyridin-3-ylamino)ethyl)phenoxy)azetidin-1-yl) benzoic acid]
  EC50: 1 to 10 µM

## COC(=O)c1cccc(N2CC(Oc3ccc(NC(=O)Cc4cccnc4)cc3)C2)c1-c1ccccc1 [Example 45, methyl 6-(3-(4-(2-(pyridin-3-yl)acetamido)phenoxy)azetidin-1-yl)-[1,1′-biphenyl]-2-carboxylate]
  EC50: < 1 µM

## O=C(Cc1cccnc1)Nc1ccc(OC2CN(c3cccc(C(=O)O)c3-c3ccccc3)C2)cc1 [Example 45a, 6-(3-(4-(2-(pyridin-3-yl)acetamido)phenoxy)azetidin-1-yl)-[1,1′-biphenyl]-2-carboxylic acid]
  EC50: 10 to 50 µM

## O=C(Cc1cccnc1)Nc1ccc(OC2CN(c3cccc(C(=O)NO)c3-c3ccccc3)C2)cc1 [Example 45b, N-hydroxy-6-(3-(4-(2-(pyridine-3-yl)acetamido)phenoxy)azetidin-1-yl)-[1,1′-biphenyl]-2-carboxamide]
  EC50: < 1 µM

## CNC(=O)c1cccc(N2CC(Oc3ccc(NC(=O)Cc4cccnc4)cc3)C2)c1-c1ccccc1 [Example 45c, N-methyl-6-(3-(4-(2-(pyridin-3-yl)acetamido)phenoxy)azetidin-1-yl)-[1,1′-biphenyl]-2-carboxamide]
  EC50: < 1 µM

## CONC(=O)c1cccc(N2CC(Oc3ccc(NC(=O)Cc4cccnc4)cc3)C2)c1-c1ccccc1 [Example 45d, N-methoxy-6-(3-(4-(2-(pyridin-3-yl)acetamido)phenoxy)azetidin-1-yl)-[1,1′-biphenyl]-2-carboxamide]
  EC50: 10 to 50 µM

## O=C(Cc1cccnc1)Nc1ccc(OC2CN(c3ccccc3-c3ccccc3)C2)cc1 [Example 45e, N-(4-((1-([1,1′-biphenyl]-2-yl)azetidin-3-yl)oxy)phenyl)-2-(pyridin-3-yl)acetamide]
  EC50: 10 to 50 µM

## COC(=O)c1cccc(N2CC(Oc3ccc(NC(=O)Nc4cncc(F)c4)cc3)C2)c1-n1cccc1 [Example 46, methyl 3-(3-(4-(3-(5-fluoropyridin-3-yl)ureido)phenoxy)azetidin-1-yl)-2-(1H-pyrrol-1-yl) benzoate]
  EC50: 1 to 10 µM

## O=C(Nc1ccc(OC2CN(c3cccc(C(=O)O)c3-n3cccc3)C2)cc1)Nc1cncc(F)c1 [Example 46a, 3-(3-(4-(3-(5-fluoropyridin-3-yl)ureido)phenoxy)azetidin-1-yl)-2-(1H-pyrrol-1-yl) benzoic acid]
  EC50: 1 to 10 µM

## COC(=O)c1cccc(N2CC(Oc3ccc(NC(=O)Nc4cncc(C)c4)cc3)C2)c1-n1cccc1 [Example 47, methyl 3-(3-(4-(3-(5-methylpyridin-3-yl)ureido)phenoxy)azetidin-1-yl)-2-(1H-pyrrol-1-yl) benzoate]
  EC50: 10 to 50 µM

## Cc1cncc(NC(=O)Nc2ccc(OC3CN(c4cccc(C(=O)O)c4-n4cccc4)C3)cc2)c1 [Example 47a, 3-(3-(4-(3-(5-methylpyridin-3-yl)ureido)phenoxy)azetidin-1-yl)-2-(1H-pyrrol-1-yl) benzoic acid]
  EC50: < 1 µM

## COC(=O)c1cccc(N2CC(Oc3ccc(NC(=O)Cc4cccnc4)cc3)C2)c1-c1cccc(Cl)c1 [Example 48, methyl 3′-chloro-6-(3-(4-(2-(pyridin-3-yl)acetamido)phenoxy)azetidin-1-yl)-[1,1′-biphenyl]-2-carboxylate]
  EC50: < 1 µM
